In test [1] the target is T1, Tubulin (Homo sapiens) (UniProt P68371+Q9H4B7+P0DPH7+P68366+Q13509+Q71U36+P04350+Q3ZCM7+P07437+P68363+Q9BQE3+Q6PEY2+Q13885+Q9BVA1+Q9BUF5). The experiment in a line: Disruption of microtubule assembly in human HepG2 cells assessed as changes in cell morphology at 100 nM by immunofluorescence analysis. The format is cell-based.
Test [2] has as its system HepG2. The experiment in a line: Induction of cell cycle arrest in human HepG2 cells assessed as accumulation of cells at G2 phase at 50 nM incubated for 6 hrs by propidium iodide staining based flow cytometric analysis (reference value: 15.06%). The format is functional.
Test [3] has as its system HepG2. Nature of the test: Induction of cell cycle arrest in human HepG2 cells assessed as accumulation of cells at S phase at 100 nM by propidium iodide staining based flow cytometric analysis (reference value: 19.34%). Format: functional.
Test [4] relates to HepG2. Nature of the test: Inhibition of cell migration in human HepG2 cells at 25 to 100 nM incubated for 48 hrs by wound healing assay. The format is functional, cell-based. The conditions noted are these: dose 25-100 nM.
In the next test the test system is U-937. Nature of the test: Antiproliferative activity against human U-937 cells assessed as cell growth inhibition. The format is functional, cell-based.
Another test has as its system A549. Nature of the test: Antiproliferative activity against human A549 cells assessed as cell growth inhibition. The format is functional, cell-based.
The test system of test [5] is HepG2. The experiment in a line: Induction of cell cycle arrest in human HepG2 cells assessed as accumulation of cells at S phase at 25 nM by propidium iodide staining based flow cytometric analysis (reference value: 19.34%). The format is functional. In general terms: A flow cytometer gives signals particle by particle.
In test [6] the test system is HepG2. Nature of the test: Induction of cell cycle arrest in human HepG2 cells assessed as accumulation of cells at S phase at 50 nM incubated for 6 hrs by propidium iodide staining based flow cytometric analysis (reference value: 22.36%). The format is functional.
The subject of test [7] is HepG2. Nature of the test: Induction of cell cycle arrest in human HepG2 cells assessed as accumulation of cells at G2 phase at 25 nM by propidium iodide staining based flow cytometric analysis (reference value: 8.58%). Format: functional.
Test [8] concerns HepG2. Nature of the test: Induction of cell cycle arrest in human HepG2 cells assessed as accumulation of cells at G1 phase at 25 nM by propidium iodide staining based flow cytometric analysis (reference value: 72.08 %). Format: functional.
Test [9] deals with HepG2. The experiment in a line: Induction of cell cycle arrest in human HepG2 cells assessed as accumulation of cells at G1 phase at 50 nM incubated for 12 hrs by propidium iodide staining based flow cytometric analysis (reference value: 62.58%). The format is functional.
The subject of test [10] is HepG2. Nature of the test: Induction of cell cycle arrest in human HepG2 cells assessed as accumulation of cells at G2 phase at 50 nM incubated for 12 hrs by propidium iodide staining based flow cytometric analysis (reference value: 15.06%). Format: functional.
Test [11] concerns HepG2. The experiment in a line: Induction of cell cycle arrest in human HepG2 cells assessed as accumulation of cells at G1 phase at 100 nM by propidium iodide staining based flow cytometric analysis (reference value: 72.08 %). Format: functional.
Test [12] has as its system HepG2. The experiment in a line: Induction of cell cycle arrest in human HepG2 cells assessed as accumulation of cells at S phase at 50 nM incubated for 12 hrs by propidium iodide staining based flow cytometric analysis (reference value: 22.36%). The format is functional.
Test [13] concerns the target T1, Tubulin (Homo sapiens). Nature of the test: Disruption of microtubule assembly in human HepG2 cells assessed as loss of microtubule structure at 100 nM by immunofluorescence analysis. The format is cell-based.
Test [14] has as its system HepG2. Nature of the test: Induction of cell cycle arrest in human HepG2 cells assessed as accumulation of cells at G2 phase at 100 nM by propidium iodide staining based flow cytometric analysis (reference value: 8.58%). The format is functional.
Test [15] relates to HepG2. Nature of the test: Induction of cell cycle arrest in human HepG2 cells assessed as accumulation of cells at G1 phase at 50 nM incubated for 24 hrs by propidium iodide staining based flow cytometric analysis (reference value: 62.58%). The format is functional.
The subject of test [16] is HepG2. The experiment in a line: Induction of cell cycle arrest in human HepG2 cells assessed as accumulation of cells at G1 phase at 50 nM by propidium iodide staining based flow cytometric analysis (reference value: 72.08 %). The format is functional.
For test [17], the system named is HepG2. The experiment in a line: Induction of cell cycle arrest in human HepG2 cells assessed as accumulation of cells at S phase at 50 nM by propidium iodide staining based flow cytometric analysis (reference value: 19.34%). The format is functional.
Test [18] deals with HepG2. The experiment in a line: Induction of cell cycle arrest in human HepG2 cells assessed as accumulation of cells at S phase at 50 nM incubated for 24 hrs by propidium iodide staining based flow cytometric analysis (reference value: 22.36%). The format is functional.
For test [19], the system named is HepG2. The experiment in a line: Induction of apoptosis in human HepG2 cells by AnnexinV-FITC/PI-staining based flow cytometry. Format: functional, cell-based. The conditions noted are these: dose 25-100 nM.
The subject of test [20] is HepG2. The experiment in a line: Antiproliferative activity against human HepG2 cells assessed as cell growth inhibition. The format is functional, cell-based.
Test [21] relates to HepG2. The experiment in a line: Induction of cell cycle arrest in human HepG2 cells assessed as accumulation of cells at G2 phase at 50 nM by propidium iodide staining based flow cytometric analysis (reference value: 8.58%). Format: functional.
The test system of test [22] is HepG2. Nature of the test: Induction of cell cycle arrest in human HepG2 cells assessed as accumulation of cells at G2 phase at 50 nM incubated for 24 hrs by propidium iodide staining based flow cytometric analysis (reference value: 15.06%). The format is functional.
Test [23] relates to HepG2. Nature of the test: Induction of cell cycle arrest in human HepG2 cells assessed as accumulation of cells at G1 phase at 50 nM incubated for 6 hrs by propidium iodide staining based flow cytometric analysis (reference value: 62.58%). Format: functional.
In a further test the test system is Y79. Nature of the test: Antiproliferative activity against human Y79 cells assessed as cell growth inhibition. Format: functional, cell-based.
In test [24] the test system is HepG2. The experiment in a line: Inhibition of cell invasion in human HepG2 cells by transwell invasion assay. Format: functional, cell-based. The conditions noted are these: dose 25-100 nM.
Test [25] concerns the target T1, Tubulin (Homo sapiens). Nature of the test: Inhibition of tubulin (unknown origin) polymerization assessed as reduction in fluorescence intensity at 4 uM. The format is protein-complex assay.

Active and inactive are the calls of the source. No cut-off for these calls is given here.

Usually IC50 stands for the midpoint of a concentration-inhibition curve. `COc1cc(C(/C=C/c2ccc3[nH]ccc3c2)=N/O)cc(OC)c1OC`: the outcome at Tubulin (Homo sapiens) [1] and on Tubulin (Homo sapiens) [13] was Active. The Activity with HepG2 [2] was 17.98%; in the test on HepG2 [3], 23.61%; in the test with HepG2 [5] it was 4.78%; in the test on HepG2 [6], 18.56%; in the test with HepG2 [7], 23.54%; in the test on HepG2 [8], 71.68%. Besides, the Activity came to 56.18% with HepG2 [9]; 25.73% in the test with HepG2 [10]; 6% in the test with HepG2 [11]; 17.79% with HepG2 [12]; 70.39% with HepG2 [14]; 60.13% with HepG2 [15]. For the same molecule, the Activity in the test on HepG2 [16] is 56.33%; with HepG2 [17] it was 4.81%; in the test with HepG2 [18], 26.95%; with HepG2 [19], “Dose-Dependent Effect”; in the test on HepG2 [21], 38.86%; with HepG2 [22] it was 26.95%. In the test on HepG2 [23], the Activity is reported as 63.46%. The inhibition entry in the test on HepG2 [4] and on Tubulin (Homo sapiens) [25] was “Active” in each case. The concentration for half-maximal inhibition (IC50) came to 0.138 µM with U-937, 0.271 µM in the test on A549, 0.065 µM in the test on HepG2 [20] and 0.251 µM in the test on Y79. In addition, the inhibition entry in the test with HepG2 [24] was “Dose-Dependent Effect”.

For the molecule `COc1cc(C2=NOC(c3ccc4c(c3)OCCO4)C2)cc(OC)c1OC` (configuration not stated), the half-maximal inhibitory concentration (IC50) with U-937, in the test on A549, in the test on HepG2 [20] and in the test on Y79 was greater than 10 µM in each case.

These data come from ChEMBL document CHEMBL5252560 (Bioorg Med Chem Lett, 2023).
